The results in this text go back to patent US8507420B2, “Solvent composition” (Toyota Jidosha Kabushiki Kaisha, priority 2009, dated 2013).

Entries after “also recorded” stand apart in the source; their conditions may differ.

Data set [1] is described as follows: Thermal stability of SOD mimetic compounds (retained SOD activity after thermal process in solvents/oils). In kind it is physicochemical. The settings on record: for decline in activity after thermal process: dehydrated ethanol, 60 minutes, FIG. 4; for retained activity / retained activity after thermal process: 120 minutes; for retained activity after thermal process: solvent not stated. The source says: (§1) In this example, Mn-cpx3, Mn-TBAP, Mn-TMPyP and Mn-TM-2-PyP were purchased from Aldrich Company, and were used as SOD mimetic compounds. These compounds are low-molecular complex having π-conjugate system. These compounds are basically water-soluble, and are also soluble in ethanol and in lubricating oils. In the case where an SOD mimetic compound was to be dissolved in ethylene glycol, and in a food oil containing vegetable sterol and glycerin ester as main components, the SOD mimetic compound was first dissolved in ethanol, and then the ethanol solution was added into ethylene glycol and a food oil. In the case where an SOD mimetic compound was to be dissolved in an engine oil (trade name: Eneos Motor Oil), the SOD mimetic compound was firstly dissolved in dimethyl sulfoxide (DMSO), and then the DMSO solution was added into the engine oil. As for the concentration conditions for thermal stability, investigation was performed in the presence of 1 to 10 μg/mL of an SOD mimetic compound in the water-based solution and 10 to 50 μg/mL of an SOD mimetic compound in the oil-based solution, with 10% of ethanol or DMSO, in the temperature range of 50 to 140° C.
The SOD activity of the SOD mimetic compounds was measured by using as an index the oxidation of a water-soluble tetrazolium salt (WST) by oxygen radicals generated from xanthin-xanthin oxidase. Specifically, the WST was used as a substrate of the oxidation by oxygen radicals, and the activity measurement was performed by using as an index the difference in the production of water-soluble tetrazolium formazan made by the presence and the absence of the SOD mimetic compound (see the following document: H. Ueda, D. Kawana, S. Maeda and M. Sawamura, Biosci. Biotechnol. Biochem., 63, 485-488, 1999). As the WST is oxidized to become water-soluble tetrazolium formazan, ultraviolet absorption occurs at 450 nm. Therefore, by measuring this ultraviolet absorption, the oxidation reaction by oxygen radicals can easily be measured. The activity measurement buffer was a 35 mM sodium carbonate solution (pH 10.2) containing 0.17 mM of xanthin and 0.11 mM of EDTA. The oxidation substrate used was 0.24 mM of the WST. The SOD mimetic compounds were dissolved in ethanol or DMSO. The concentrations thereof at the time of measurement of activity were 0.1 to 0.8 μg/mL.
In this example, the vegetable food oil used was diacyl glycerol. Mn-TMPyP retained 50% of the activity at 70° C. after 120 minutes, and 40% of the activity at 100° C. after 120 minutes. […] It has become clear that Mn-cpx3 is particularly excellent in the SOD-mimetic activity and the thermal stability in food oil.
With regard to Mn-cpx3, which was considered to be the most excellent in activity and thermal stability, the stability thereof in other oil solutions was investigated. […] However, in engine oil, the stability sharply declines to about 10 to 20%.

A short description of data set [2]: SOD activity measurement (WST oxidation by oxygen radicals from xanthin-xanthin oxidase, absorption at 450 nm). It counts as biochemical. The settings on record: FIG. 2.
Excerpt: In this activity measurement system, the WST used as the oxidation substrate can be considered to be a model compound as the substance that is subject to oxidation by oxygen radicals, that is, as the functional substance. […]
Data set [3] is described as follows: Solubility of SOD mimetic compounds in water, ethanol, oils. In kind it is physicochemical. The settings on record: solvent as stated in value.
Excerpt: as §1

[4] abbreviates: vegetable food oil (diacyl glycerol), 100° C., FIG. 5.

Consider `O=C(O)c1ccc(C2=C3C=CC(=N3)C(c3ccc(C(=O)O)cc3)=c3ccc([nH]3)=C(c3ccc(C(=O)O)cc3)c3ccc([n-]3)C(c3ccc(C(=O)O)cc3)c3ccc2[n-]3)cc1.[Cl-].[Mn+3]` (stereo not shown) [Mn-TBAP, Mn(III) tetrakis(4-benzoic acid)porphyrin chloride], for which the “decline in activity after thermal process” value in data set [1] (70° C.) is given as “substantially no decline in the activity”.

For `C[n+]1ccc(-c2c3nc(c(-c4cc[n+](C)cc4)c4ccc([nH]4)c(-c4cc[n+](C)cc4)c4nc(c(-c5cc[n+](C)cc5)c5ccc2[nH]5)C=C4)C=C3)cc1.[Mn+3]` [Mn-TMPyP, Mn(III) tetrakis(1-methyl-4-pyridyl)porphyrin], the retained activity amounted to 50% in data set [1] (vegetable food oil (diacyl glycerol), 70° C., FIG. 5) and 40% in data set [1] (setting [4]).

Take “manganese (Mn) complex of 7-hydroxyflavone [Mn-cpx3]”: the results for the “relative activity per unit weight with reference to the enzyme activity of the PEG-modified A. per SOD” value in data set [2] (after the process in ethanol at 50° C. for 10 minutes) and in data set [2] (in water) were 850 times and 460 times, respectively. For the same compound, the “retained activity after thermal process” value in data set [1] (50° C.) is given as roughly 100%; in data set [1] (100° C.) it was no less than 70%. Besides, the “decline in activity after thermal process” value in data set [1] (70° C.) was “substantially no decline in the activity”. Further, the retained activity in data set [1] (ethylene glycol, 140° C., FIG. 6) was determined as 70%; in data set [1] (setting [4]) it was 60%; in data set [1] (vegetable food oil (diacyl glycerol), 140° C., FIG. 5) it was 50%. The “stability in water-based ethanol” value in data set [1] (water-based ethanol) is recorded as “highly stable”. In addition, the solubility result in data set [3] is “soluble in ethylene glycol and in vegetable oil; also recorded: soluble even in oil solutions”.
